Ends that are not written are not given here.
Tests used:
αBgt = αBgt (Bungarus multicinctus, UniProt P60615); experiment: biochemical; assay type: binding
αCtx = αCtx (Naja kaouthia, UniProt P01391); experiment: biochemical; assay type: binding
Sequence of αCtx (P01391 whole entry, looked up): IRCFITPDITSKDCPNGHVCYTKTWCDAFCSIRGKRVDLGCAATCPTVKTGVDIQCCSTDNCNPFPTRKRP

Sequence of αBgt (P60615 22-95 limits assumed): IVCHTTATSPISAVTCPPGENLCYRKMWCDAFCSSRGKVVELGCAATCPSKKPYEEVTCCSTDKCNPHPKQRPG

Question: For WRYYESSLEPYPD [HAP[L9E]], which Kd (αBgt) is on record?
Answer: 91 ± 33 nM

Question: What about the Kd (αCtx) of the same sequence?
Answer: 7000 ± 1000 nM

Question: For WRYYESSLLPYPD [HAP], which Kd (αBgt) is on record?
Answer: 29 ± 8 nM

Question: What about the Kd (αCtx) of the same sequence?
Answer: > 10000 nM
